1 molecule from patent US7691889B2, “Antimycobacterial compounds” (Lupin Limited, priority 2002, dated 2010) can be followed below.

The assay relates to M. tuberculosis clinical isolates, resistant. The experiment in a line: microbe, parasite or virus in culture. It counts as cell-based, Mycobacterium tuberculosis. The following applies: Mycobacterium tuberculosis, read-out: MIC against Clinical isolates Resistant.

Converted amounts (≈) assume the structure as drawn.

In the case of `O=C(CCC(=O)c1ccc2ccccc2c1)NC[C@H]1CN(c2ccc(-c3nc[nH]n3)c(F)c2)C(=O)O1` [Compound 48, (S)-N-[[3-(3-fluoro-4-(1,2,4-triazolyl)phenyl)-2-oxo-5-oxazolidinyl]methyl]-4-(2-naphthyl)-4-oxobutanamide], the MIC lay within 2 to 8 µg/mL (≈ 4.1 to 16.4 µM).
